ChEMBL document CHEMBL1914290, “3,4-Disubstituted oxazolidin-2-ones as constrained ceramide analogs with anticancer activities” (Bioorg Med Chem, 2011)
Calls of active or inactive are those of the source. The calls are words filed in the database; no cut-off is given here.

Assays:
[1] = test system: HL-60; test: Antileukemic activity against human HL60 cells at 20 uM after 16 hrs by MTT assay; type: functional, cell-based
[2] = test system: HL-60; test: Induction of apoptosis in human HL60 cells assessed as DNA fragmentation at 20 uM after 15 hrs; type: functional, cell-based

SMILES | Activity [1] | Activity [2]
O=C1OC[C@@H]([C@H](O)/C=C/C2CCCC2)N1C(=O)C1CCCC1 | inactive | 
CCCCCCCCCCCCC/C=C/[C@@H](O)[C@@H]1COC(=O)N1C(C)=O | Active | Active
CCCCCCCCCCCCC/C=C/[C@@H](O)[C@@H]1COC(=O)N1C(=O)CC | Active | Active
CCCCCCCCCCCCC/C=C/[C@@H](O)[C@@H]1COC(=O)N1C(=O)C/C=C/c1ccccc1 | inactive | 
CCCCCC/C=C/[C@@H](O)[C@@H]1COC(=O)N1C(=O)C1CCCC1 | inactive | 
CCCC/C=C/[C@@H](O)[C@@H]1COC(=O)N1C(=O)C1CCCC1 | inactive | 
CCCCCCCCCCCCC/C=C/[C@@H](O)[C@@H]1COC(=O)N1C(=O)Cc1ccccc1 | inactive | 
CCCCCCCCCCCCC/C=C/[C@@H](O)[C@@H]1COC(=O)N1C(=O)CCCCCCCCCCCCCCC | inactive | Active
CCCCCCCCCCCCC/C=C/[C@@H](O)[C@@H]1COC(=O)N1C(=O)c1cccc2ccccc12 | Active | 
CCCCCCCCCCCCC/C=C/[C@@H](O)[C@@H]1COC(=O)N1C(=O)c1ccccc1OC | Active | 
CCCCCCCCCCCCC/C=C/[C@@H](O)[C@@H]1COC(=O)N1C(=O)c1ccco1 | Active | 
CCCCCCCCCCCCC/C=C/[C@@H](O)[C@@H]1COC(=O)N1C(=O)C(C)C | Active | Active
CCCCCCCC/C=C/[C@@H](O)[C@@H]1COC(=O)N1C(=O)C1CCCC1 | inactive | 
O=C1OC[C@@H]([C@H](O)/C=C/Cc2ccccc2)N1C(=O)C1CCCC1 | inactive | 
CCCCCCCCCCCCC/C=C/[C@@H](O)[C@@H]1COC(=O)N1C(=O)C1CCCC1 | Active | Active
CCCCCCCCCCCCC/C=C/[C@@H](O)[C@@H]1COC(=O)N1C(=O)C(C)(C)C | Active | 
CCCCCCCCCC/C=C/[C@@H](O)[C@@H]1COC(=O)N1C(=O)C1CCCC1 | Active | 
O=C1OC[C@@H]([C@H](O)/C=C/C2CCCCC2)N1C(=O)C1CCCC1 | inactive | 
CCCCCCCCCCCCC/C=C/[C@@H](O)[C@@H]1COC(=O)N1C(=O)c1ccc([N+](=O)[O-])cc1 | Active | Active
CCCCCCCCCCCCC/C=C/[C@@H](O)[C@@H]1COC(=O)N1C(=O)c1ccccc1 | Active | Active
